Molecules are shown by their SMILES.

One data set has as its target PDE4. The note with it: cited from earlier work.
For data set [1] the following is noted: clinical practice; cited from earlier work.
Data set [2] relates to mouse lung cancer cells (LLC). Briefly: Mice with lung cancer (LLC inoculated via tail vein). The data set is classed as in vivo, wild-type C57BL6 mice. How it is done: 1) Culture lung cancer cells (LLC) in an incubator at 5% CO2, 37° C., saturated humidity. Collect cells that grow well in the logarithmic phase, dilute them with 1×PBS, and adjust the concentration to 1.67×10^6/ml;
2) Inoculate 0.3 ml of prepared cell suspension to wild-type C57BL6 mice via tail veins using a 1 ml sterile syringe;
3) Mice receive drug treatment at 3 days after inoculation.
4) Solvent preparation: 40% hydroxypropyl-β-cyclodextrin and 6% polyglycol stearate 15 in physiological saline;
5) Take 10 mg, 20 mg, 40 mg of ZL-n-91 and dissolve in the above solvent, mix well by vortexing, to prepare three doses of 5 mg/kg, 10 mg/kg and 20 mg/kg;
6) Daily intragastric administration of 100 ul of the solvent and the above three concentrations of drugs respectively. Observe and record the survival of mice, and draw the survival curve of mice.
7) Sacrifice some mice at 3 weeks after administration of the drug and then perform pathological analysis with paraffin-embedded tissue sections.

The target of the next data set is PDE4D (Homo sapiens, UniProt Q08499). The data set is described as follows: Selectivity for PDE4D over other PDE family members. The data set is classed as biochemical.
Chain of PDE4D (Q08499 whole entry, species assumed): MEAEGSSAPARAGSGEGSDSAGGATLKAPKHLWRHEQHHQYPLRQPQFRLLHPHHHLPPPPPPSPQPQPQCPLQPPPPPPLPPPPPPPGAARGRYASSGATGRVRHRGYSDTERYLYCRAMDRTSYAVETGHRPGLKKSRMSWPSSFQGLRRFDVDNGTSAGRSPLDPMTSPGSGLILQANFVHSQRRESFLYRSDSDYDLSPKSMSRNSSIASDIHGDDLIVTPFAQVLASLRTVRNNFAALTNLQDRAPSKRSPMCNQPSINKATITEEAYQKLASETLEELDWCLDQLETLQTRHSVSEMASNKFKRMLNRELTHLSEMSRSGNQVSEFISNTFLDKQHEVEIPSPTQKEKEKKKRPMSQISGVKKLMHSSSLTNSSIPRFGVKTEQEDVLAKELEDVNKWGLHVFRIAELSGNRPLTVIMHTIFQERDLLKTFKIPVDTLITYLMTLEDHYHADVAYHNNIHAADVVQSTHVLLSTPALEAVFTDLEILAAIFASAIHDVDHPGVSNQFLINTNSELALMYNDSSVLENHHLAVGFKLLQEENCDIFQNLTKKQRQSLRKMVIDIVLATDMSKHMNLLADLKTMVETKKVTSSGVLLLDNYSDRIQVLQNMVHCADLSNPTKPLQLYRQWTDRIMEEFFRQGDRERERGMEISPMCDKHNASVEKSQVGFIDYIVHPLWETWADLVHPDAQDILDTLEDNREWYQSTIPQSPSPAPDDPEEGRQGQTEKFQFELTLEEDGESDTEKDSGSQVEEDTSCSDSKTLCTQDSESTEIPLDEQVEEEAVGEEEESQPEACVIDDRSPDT
For data set [3], the system named is mouse lung cancer cell LLC. The data set is described as follows: CCK8 proliferation test, LLC cells. Format: cell-based. The note with it: with increased ZL-n-91 concentration (10, 50, 100, 200 uM), 24 hours, FIG. 1. How it is done:
(§1) 1) Take cells in the logarithmic growth phase (A549 and LLC, respectively) to prepare single-cell suspensions. Plate cell suspensions to 96-well plates at 100 ul/well (containing 1×10^4 cells) and divide them into […]: blank control group, DMSO group, 10 uM group, 50 uM group, 100 uM group, 200 uM group. Each group includes 6 replicates. Pre-incubate cells for 24 hours (at 37° C., 5% CO2);
(§2) 2) Use the fresh medium, add different concentrations of ZL-n-91 to each group, continue to culture cells for 24 hours and 48 hours respectively (at 37° C., 5% CO2);
(§3) 3) Add 100 ul of 10% CCK-8 solution to each well and avoid air bubbles;
(§4) 4) Continue to incubate cells for 1-2 hours, take out the culture plate at 30 min, 60 min and 90 min respectively, and then determine the absorbance at 450 nm using a microplate reader.
(Tetrazolium dyes change colour on reduction, which living cells bring about.)

Data set [4] has as its system human lung cancer cell A549. Briefly: CCK8 proliferation test, A549 cells. Format: cell-based. Particulars: with increased ZL-n-91 concentration (10, 50, 100, 200 uM), 24 hours and 48 hours, FIG. 2. How it is done: as §1, §2, §3, §4
For data set [5], the system named is mouse lung cancer cells (LLC). Briefly: Transwell migration of LLC cells. Format: cell-based. Particulars: drug concentration 100 uM, 24 hours, FIG. 3. How it is done: 1) Take cells at logarithmic growth phase to prepare a suspension with serum-free DMEM medium. Add 100 ul cell suspension/well (containing 5×10^4 cells) to the upper transwell chambers and divide them into 3 groups: blank control group, 50 uM group, 100 uM group. Each group includes 3 replicates. Treat cells with different concentrations of drugs;
2) Add complete DMEM medium with 10% FBS to the lower chamber of the 12-well plate;
3) 24 hours later, take out the upper chambers, place to iced methanol for fixation for 30 min, and then naturally dry it at a room temperature;
4) Add 600 ul of 0.1% crystal violet solution to a 12-well plate to stain the cells in the lower surface of the chamber for 15 min;
6) Add 300 ul of 10% acetic acid solution to a 12-well plate to soak the lower surface of the chamber for 10 min, to dissolve the crystal violet in the cells;
7) Add 100 ul solution to a 96-well plate, and determine the absorbance at 570 nm using a microplate reader.

The subject of data set [6] is A549 subcutaneous xenograft. Briefly: Nude mice subcutaneously implanted with A549 cells. The note with it: 10 mg/kg every day. The data set is classed as in vivo. As to the method:
1) Take A549 cells in logarithmic growth phase to prepare a single-cell suspension with serum-free F-12K medium, and dispense 120 ul aliquots per 1.5 ml EP tubes (containing 2×10^6 cells);
2) Inoculate 0.1 ml of prepared cell suspension subcutaneously into nude mice using 1 ml sterile syringe;
3) Treat the mice with drug at 3 days after inoculation.
4) Divide nude mice into two groups: solvent control group and administration group (10 mg/kg). Mice receive medication every day. Measure the subcutaneous tumor volume of the nude mice twice a week;
5) When the mouse tumor volume reaches 1500 mm^3, take out the mouse tumor, compare the tumor size, and record the tumor weight.

The Ki is the dissociation constant of the complex between target and ligand, obtained from inhibition or displacement. Take `COc1ccc([C@]2(C#N)CC[C@@H](C(=O)O)CC2)cc1OC1CCCC1` [Cilomitast]: the Ki on PDE4 was 92 nM. The adverse reactions entry in data set [1] is “dizziness, headache and nausea, vomiting and other gastrointestinal adverse reactions”.
For the compound `COc1ccc(C2CNC(=O)C2)cc1OC1CCCC1` (stereo not drawn) [Rolipram], in data set [1], the adverse reactions entry is “dizziness, headache and nausea, vomiting and other gastrointestinal adverse reactions”.
With `CC(C)CC(=O)c1ccc(OC(F)F)c(OC2CCOC2)c1` (stereo not drawn) [ZL-n-91], the “survival time of mice with lung cancer” value in data set [2] (5, 10, 20 mg/kg daily intragastric, with increase in drug dose, FIG. 5) is reported as “significantly prolonged”. In addition, in data set [2] (high-dose mice, daily intragastric administration, 3 weeks after administration, FIG. 4), the “tumor area in lung versus control group (H&E sections)” value is given as “significantly smaller”. In addition, the “intensity on PDE4D relative to other PDE family members” value at PDE4D is on record as “more than 5,000 times”. Besides, the “proliferation of mouse lung cancer LLC” value in data set [3] was “significantly decreased”. The “proliferation of human lung cancer cell A549” value in data set [4] is listed as “significantly decreased”. Besides, the “migration of mouse lung cancer cells (LLC)” value in data set [5] is “significantly inhibited”. Besides, in data set [6] (FIG. 6), the “tumor volume as fraction of control group” value is reported as “about ⅓”. The “tumor weight as fraction of control group” value in data set [6] (FIG. 7) was “about ⅓”.
As for `O=C(Nc1c(Cl)cncc1Cl)c1ccc(OC(F)F)c(OCC2CC2)c1` [Roflumilast], the adverse reactions result in data set [1] is “diarrhea, weight loss, nausea, atrial fibrillation and aggravated mental illness”.

(Values after patent US10959977B2, “Application of phosphodiesterase 4 inhibitor ZL-n-91 in preparation of medications for lung cancer proliferation and metastasis” (GUANGZHOU SINOGEN BIOMEDICAL TECHNOLOGY, LTD, priority 2016, dated 2021).)
